The results in this text go back to patent US20100009956A1, “NOVEL SUBSTITUTED PYRIMIDINES AS CYSTEINE PROTEASE INHIBITORS” (Glaxo Group Limited , a corporation, priority 2006, published 2010).

Structures can show the parent of a compound that is named as a salt. Where two headings read alike, the source gives them in different places. Some results are limits rather than exact numbers.

One experiment addresses Falcipain-2 (Plasmodium falciparum, UniProt Q8I6U4). Nature of the experiment: Falcipain-2 enzymatic assay (assay 1). It counts as biochemical. A digest of the protocol:
(§1)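 Recombinant parasite enzyme with 30 uM H-D-VLR-AFC in 100 mM sodium acetate pH 5.5, 10 mM DTT, 0.5 mM CHAPS, 1% DMSO, ambient temperature. Endpoint after 60 minutes, quenched with 16.6 uM E-64; AFC fluorescence (ex 405/em 530). IC50 from four-parameter fit, apparent KI assuming competitive inhibition.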

Experiment [1] relates to Plasmodium falciparum parasite. Nature of the experiment: Whole cell assay (assay 2). The class given is cell-based. From the text:
Assay 2) Determination of Whole Cell Activity Against the Plasmodium falciparum Parasite
Compounds can be evaluated for whole cell actvity against the Plasmodium falciparum parasite according to the procedure described in Sijwali S. and Rosenthal P. J., (2004) Proceedings of the National Academy of Sciences of the United States of America (PNAS) 101 (13), 4384-4389 (see in particular “Measurement of Parasite Growth rates and Inhibitor Sensitivity” on page 4385); IC50 values can be calculated as described in Singh A. and Rosenthal P. J., (2001) Antimicrobial Agents and Chemotherapy 45(3), 949-951 (see in particular page 950, first column); synchronised parasites can be prepared as described in Divo A. A. et al., (1985) Protozool. 32, 59-64.

A further experiment deals with Falcipain-3 (Plasmodium falciparum, UniProt Q8IIL0). Nature of the experiment: Falcipain-3 enzymatic assay (assay 1). It counts as biochemical. A digest of the protocol:
as §1

Another experiment concerns the target Cathepsin S (Homo sapiens, UniProt P25774). The experiment can be described thus: Cathepsin S enzymatic assay (assay 1). The class given is biochemical. Particulars: human recombinant enzyme, KQKLR-AMC substrate, pH 6.5. On the procedure:
Assay 1) Determination of Falcipain-2, Falcipain-3, Vivapain-2, Cathepsin K Cathepsin S, Cathepsin L, and Cathepsin B Proteolytic Catalytic Activity
Assays for Falcipain-2, Falcipain-3, and Vivapain-2 are carried out with parasitic recombinant enzymes. Cathepsins K, S, L, and B are carried out with human recombinant enzymes. Standard assay conditions for the determination of kinetic constants used a fluorogenic peptide substrate, typically H-D-VLR-AFC (Falcipain-2, Falcipain-3, Vivapain-2), Z-FR-AFC (Cathepsin K, L, B), or KQKLR-AMC (Cathepsin S) and are determined in 100 mM sodium acetate, pH 5.5, containing 10 mM DTT and 0.5 mM CHAPS (Falcipain-2, Falcipain-3, Vivapain-2), and 100 mM sodium acetate, pH 5.5, containing 5 mM L-cysteine, 1 mM CHAPS and 5 mM EDTA (Cathepsin K, L, B), or 50 mM MES, pH 6.5, containing 0.5 mM CHAPS, 10 mM L-CYS, 5 mM EDTA (Cathepsin S). Stock substrate solutions are prepared at 20 mM in DMSO. The activity assays contained 30 uM substrate (Falcipain-2, Falcipain-3, Vivapain-2), 20 uM substrate (Cathepsin K), 25 uM substrate (Cathepsin B), 5 uM substrate (Cathepsin L), and 30 uM substrate (Cathepsin S). All assays contained 1% DMSO. […] All assays are conducted at ambient temperature as end point assays being quenched after 60 minutes with the exception of Cathepsin S at 90 minutes, with 16.6 uM E-64 in 1% DMSO. Product formation (AFC or AMC) is determined from fluorescence (excitation at 405 nm; emission at 530 nm, AFC, or excitation at 360 nm; emission at 460 nm, AMC) monitored with a LJL Aquest (Molecular Devices) fluorescent plate reader. In the case of kinetic reads (used in mechanism of action studies), the reaction is not quenched but is read in the plate reader every 3 minutes for approximately 90 minutes. In addition, the mechanism of action studies for Falcipain-2 utilize Z-LR-AMC as the substrate. Product formation is determined from the fluorescence of AMC, measured with a LJL Acquest (Molecular Devices) fluorescent plate reader (excitation at 360 nm; emission at 460 nm).
Potential inhibitors are evaluated using the quenched read (endpoint) method. Assays are carried out in the presence of variable concentrations of test compound. Reactions are initiated by addition of enzyme and substrate to wells containing inhibitor stamped in 100% DMSO. For endpoint assays, the reaction is quenched with the addition of E64. Dose response data is fit to an IC50 curve with preset fitting tools according to equation 1:
y=a+(b−a)/(1+(10^x/10^c)^d) (1)
where y is the response at a particular inhibitor concentration x, a is the minimum response value, b is the maximum response value, c is the IC50, and d is the slope of the IC50 curve. Assuming the compound is a competitive inhibitor, the apparent KI can be calculated from IC50, as shown in equation 2: […]

A further experiment concerns the target T1, Cathepsin K (Homo sapiens, UniProt P43235).
T1 sequence (P43235 115-329): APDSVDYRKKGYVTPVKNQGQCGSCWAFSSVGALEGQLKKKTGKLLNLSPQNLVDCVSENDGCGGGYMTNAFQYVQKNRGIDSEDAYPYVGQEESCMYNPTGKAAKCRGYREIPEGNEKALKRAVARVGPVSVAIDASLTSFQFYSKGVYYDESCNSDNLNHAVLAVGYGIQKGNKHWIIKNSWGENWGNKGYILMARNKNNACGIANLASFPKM
Nature of the experiment: Cathepsin K enzymatic assay (assay 1). It counts as biochemical. Particulars: human recombinant enzyme, Z-FR-AFC substrate, pH 5.5. Summed up:
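Human recombinant cathepsin K was assayed with the fluorogenic substrate Z-FR-AFC at 20 uM in 100 mM sodium acetate, pH 5.5, with 5 mM L-cysteine, 1 mM CHAPS, 5 mM EDTA and 1% DMSO. Enzyme plus substrate was added to wells holding inhibitor in DMSO. After 60 minutes at ambient temperature, 16.6 uM E-64 quenched the reaction. AFC fluorescence (excitation 405 nm, emission 530 nm) was read, and IC50 came from a four-parameter dose-response fit.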

Setting [2] is: parasitic recombinant enzyme, H-D-VLR-AFC substrate, pH 5.5, endpoint read, read-out: Falcipain-3 IC50.
The mark [3] stands for this setting: parasitic recombinant enzyme, H-D-VLR-AFC substrate, pH 5.5, endpoint read, read-out: Falcipain-2 IC50.

The IC50 is the concentration needed to halve the response being measured.

Chain of Cathepsin S (P25774 115-331): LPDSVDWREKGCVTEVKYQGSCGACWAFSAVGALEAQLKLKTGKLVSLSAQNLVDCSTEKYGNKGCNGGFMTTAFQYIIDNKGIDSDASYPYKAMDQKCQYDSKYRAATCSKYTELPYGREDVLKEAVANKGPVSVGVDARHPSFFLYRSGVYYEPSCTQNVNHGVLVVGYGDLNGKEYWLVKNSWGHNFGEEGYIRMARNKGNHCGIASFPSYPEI
Chain of Falcipain-3 (Q8IIL0 243-492): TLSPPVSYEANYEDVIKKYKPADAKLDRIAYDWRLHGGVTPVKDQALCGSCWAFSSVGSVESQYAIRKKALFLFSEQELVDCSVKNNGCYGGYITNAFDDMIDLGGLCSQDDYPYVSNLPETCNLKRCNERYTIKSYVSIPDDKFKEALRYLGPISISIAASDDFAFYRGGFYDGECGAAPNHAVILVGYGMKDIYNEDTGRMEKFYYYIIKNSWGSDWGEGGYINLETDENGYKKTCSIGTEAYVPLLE
Chain of Falcipain-2 (Q8I6U4 244-484): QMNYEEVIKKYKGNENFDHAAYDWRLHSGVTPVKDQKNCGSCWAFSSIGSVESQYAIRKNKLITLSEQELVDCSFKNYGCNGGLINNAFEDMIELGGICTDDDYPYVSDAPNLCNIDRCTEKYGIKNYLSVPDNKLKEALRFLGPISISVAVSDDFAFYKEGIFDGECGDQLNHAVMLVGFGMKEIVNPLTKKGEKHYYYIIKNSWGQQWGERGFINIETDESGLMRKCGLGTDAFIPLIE

Regarding `CN(Cc1ccc(C(=O)NN(c2nc(C#N)ncc2Cl)C2CCCC2)cc1)CC1OCCO1` [Example 83, N′-(5-chloro-2-cyano-4-pyrimidinyl)-N′-cyclopentyl-4-{[(1,3-dioxolan-2-ylmethyl)(methyl)amino]methyl}benzohydrazide trifluoroacetate], the results for the IC50 (against Falcipain-2; in experiment [1] (Plasmodium falciparum); at Falcipain-3) were below 1 nM, 150 to 250 nM and 1 to 2.5 nM, respectively.
For `CC(C)(C)N(CCO)Cc1ccc(C(=O)NN(c2nc(C#N)ncc2Cl)C2CCCC2)cc1` [Example 82, N′-(5-chloro-2-cyano-4-pyrimidinyl)-N′-cyclopentyl-4-{[(1,1-dimethylethyl)(2-hydroxyethyl)amino]methyl}benzohydrazide trifluoroacetate] the same measures were below 1 nM, 2.5 to 15 nM and 2.5 to 15 nM.
Take `CC(=O)N1CCC(N(NC(=O)OC(C)(C)C)c2nc(C#N)ncc2Br)CC1` [Example 79, 1,1-dimethylethyl 2-(1-acetyl-4-piperidinyl)-2-(5-bromo-2-cyano-4-pyrimidinyl)hydrazinecarboxylate]: the IC50 on Falcipain-2 is below 1 nM; on Cathepsin S, below 200 nM; in experiment [1] (Plasmodium falciparum), 15 to 150 nM; on Falcipain-3 (setting [2]), 15 to 150 nM.
As to `CC(C)N(CCN(C(=O)OC(C)(C)C)C(C)C)Cc1ccc(C(=O)NN(c2nc(C#N)ncc2Cl)C2CCCC2)cc1` [Example 85, 1,1-dimethylethyl{2-[[(4-{[2-(5-chloro-2-cyano-4-pyrimidinyl)-2-cyclopentylhydrazino]carbonyl}phenyl)methyl](1-methylethyl)amino]ethyl}(1-methylethyl)carbamate trifluoroacetate], the IC50 was below 1 nM against Falcipain-2, below 200 nM on Cathepsin S, 150 to 250 nM in experiment [1] (Plasmodium falciparum) and 2.5 to 15 nM at Falcipain-3.
For the compound `CN1CCN(C2CCN(Cc3ccc(C(=O)NN(c4nc(C#N)ncc4Cl)C4CCOCC4)cc3)CC2)CC1` [Example 34, N′-(5-Chloro-2-cyano-4-pyrimidinyl)-4-{[4-(4-methyl-1-piperazinyl)-1-piperidinyl]methyl}-N′-(tetrahydro-2H-pyran-4-yl)benzohydrazide trifluoroacetate], the IC50 was 1 to 2.5 nM against Falcipain-2, 15 to 150 nM in experiment [1] (Plasmodium falciparum), 2.5 to 15 nM against Falcipain-3 and below 17 nM on Cathepsin K.
Regarding `CN1CCN(c2ncc(C(=O)NN(c3nc(C#N)ncc3Cl)C3CCCC3)s2)CC1` [Example 77, N′-(5-chloro-2-cyano-4-pyrimidinyl)-N′-cyclopentyl-2-(4-methyl-1-piperazinyl)-1,3-thiazole-5-carbohydrazide trifluoroacetate], the IC50 is below 1 nM on Falcipain-2, 15 to 150 nM in experiment [1] (Plasmodium falciparum) and 15 to 150 nM at Falcipain-3.
“N′-(1-acetyl-4-piperidinyl)-N′-(5-bromo-2-cyano-4-pyrimidinyl)-4-[(4-methyl-1-piperazinyl)methyl]benzohydrazide trifluoroacetate [Example 37]”: the IC50 at Falcipain-2 (setting [3]) was below 1 nM; in experiment [1] it was 15 to 150 nM; at Falcipain-3 (setting [2]) it was 15 to 150 nM.
Consider `CN1CCN(C2CCN(Cc3ccc(C(=O)NN(c4nc(C#N)ncc4Br)C4CCOCC4)cc3)CC2)CC1` [Example 29, N′-(5—Bromo-2-cyano-4-pyrimidinyl)-4-{[4-(4-methyl-1-piperazinyl)-1-piperidinyl]methyl}-N′-(tetrahydro-2H-pyran-4-yl)benzohydrazide trifluoroacetate], for which the IC50 is below 1 nM against Falcipain-2, 2.5 to 15 nM in experiment [1] (Plasmodium falciparum), 2.5 to 15 nM at Falcipain-3 (setting [2]) and below 17 nM at Cathepsin K.
On to “N′-(5-chloro-2-cyano-4-pyrimidinyl)-N′-cyclopentyl-4-{[methyl(3-methylbutyl)amino]methyl}benzohydrazide trifluoroacetate [Example 63]”, for which the figures for the IC50 (on Falcipain-2 (setting [3]); in experiment [1]; on Falcipain-3 (setting [2])) were below 1 nM, 2.5 to 15 nM and 2.5 to 15 nM, respectively.
As to `CN1CCN(Cc2ccc(C(=O)NN(c3nc(C#N)ncc3Br)C3CCCC3)cc2)CC1` [Example 1A, N′-(5-bromo-2-cyano-4-pyrimidinyl)-N′-cyclopentyl-4-[(4-methyl-1-piperazinyl)methyl]benzohydrazide], the IC50 at Cathepsin S was below 1000 nM; in experiment [1], 2.5 to 15 nM.
As for `CC(=O)N1CCC(N(NC(=O)c2ccc(CN3CCC(C(=O)N4CCN(C)CC4)CC3)cc2)c2nc(C#N)ncc2Br)CC1` [Example 49, N′-(1-acetyl-4-piperidinyl)-N′-(5-bromo-2-cyano-4-pyrimidinyl)-4-({4-[(4-methyl-1-piperazinyl)carbonyl]-1-piperidinyl}methyl)benzohydrazide trifluoroacetate], the IC50 against Falcipain-2 was below 1 nM; at Cathepsin S it was below 200 nM; on Falcipain-3, 15 to 150 nM; at Cathepsin K, below 17 nM.
As to `CN1CCN(C2CCN(Cc3ccc(C(=O)NN(c4nc(C#N)ncc4Cl)C4CCCCC4)cc3)CC2)CC1` [Example 40, N′-(5-chloro-2-cyano-4-pyrimidinyl)-N′-cyclohexyl-4-{[4-(4-methyl-1-piperazinyl)-1-piperidinyl]methyl}benzohydrazide], the IC50 was below 1 nM against Falcipain-2, below 200 nM at Cathepsin S, 2.5 to 15 nM on Falcipain-3 (setting [2]) and below 1.5 nM at Cathepsin K.
For the compound `CN1CCN(C2CCN(Cc3ccc(C(=O)NN(c4nc(C#N)ncc4Br)C4CCCCC4)cc3)CC2)CC1` [Example 17, N′-(5-bromo-2-cyano-4-pyrimidinyl)-N′-cyclohexyl-4-{[4-(4-methyl-1-piperazinyl)-1-piperidinyl]methyl}benzohydrazide trifluoroacetate], the IC50 against Falcipain-2 was below 1 nM; on Cathepsin S, below 1000 nM; against Falcipain-3, 2.5 to 15 nM; on Cathepsin K, below 1.5 nM.
For `CN1CCN(Cc2ccc(-c3ccc(C(=O)NN(c4nc(C#N)ncc4Br)C4CCCCC4)cn3)cc2)CC1` [Example 44, N′-(5-bromo-2-cyano-4-pyrimidinyl)-N′-cyclohexyl-6-{4-[(4-methyl-1-piperazinyl)methyl]phenyl}-3-pyridinecarbohydrazide trifluoroacetate] the same measures were below 1 nM, below 200 nM, 2.5 to 15 nM and below 1.5 nM.
